The source of these data is patent US11034650B2, “Compounds useful for treating a Mannheimia haemolytica or Histophilus somni infection” (Intervet Inc., priority 2016, dated 2021).

Each structure is given as a SMILES string. Values after ≈ are worked out from the molar mass of the structure shown. Bounds are passed on as bounds.

What all share (type): cell-based
Test [1] has as its system Pasteurella multocida PM 6267 (P 2225 (L386), reference strain, mouse infection strain). Nature of the test: MIC, broth-microdilution (CLSI VET01-A4), strain PM 6267. Conditions: Pasteurella multocida strain PM 6267, broth-microdilution; unit assumed. On the procedure: (§1) For example, representative compounds were tested against ***, Mannheimia haemolytica and Pasteurella multocida, using the conventional broth-dilution assay.
(§2) The Minimum inhibitory concentrations (MIC) of compounds according to the invention for a number of veterinary bacterial pathogens were determined by the broth-microdilution method according to CLSI document VET01-A4.
(§3) Microdilution trays containing a doubling dilution series of the test compound were used for the tests. The MIC results were interpreted according to the CLSI documents VET01-S3. The lowest concentration of compound at which no visible growth (i.e. no turbidity) detected by the unaided eye was recorded as the MIC.
(In general: Dilution methods test growth across graded concentrations, often in twofold steps.)

In test [2] the test system is Mannheimia haemolytica MH 13093 (XB0472-6014.1, BRD field isolate). The test is described as follows: MIC, broth-microdilution (CLSI VET01-A4), strain MH 13093. Conditions: Mannheimia haemolytica strain MH 13093, broth-microdilution; unit assumed. On the procedure: as §1, §2, §3
Test [3] has as its system Mannheimia haemolytica MH 12587 (1071, BRD field isolate, macrolide-resistance: erm+, E+). The test is described as follows: MIC, broth-microdilution (CLSI VET01-A4), strain MH 12587. Conditions: Mannheimia haemolytica strain MH 12587, broth-microdilution; unit assumed. On the procedure:
as §1, §2, §3

Test [4] has as its system Mannheimia haemolytica MH 6374 (ATCC 33396, reference strain). The test is described as follows: MIC, broth-microdilution (CLSI VET01-A4), strain MH 6374. Conditions: Mannheimia haemolytica strain MH 6374, broth-microdilution; unit assumed. On the procedure:
as §1, §2, §3

The subject of test [5] is Mannheimia haemolytica MH 13065 (XB0446-6003.9, BRD field isolate). The test is described as follows: MIC, broth-microdilution (CLSI VET01-A4), strain MH 13065. The conditions noted are these: Mannheimia haemolytica strain MH 13065, broth-microdilution; unit assumed. On the procedure: as §1, §2, §3
Test [6] relates to Pasteurella multocida PM 10775 (080130003051, BRD field isolate). The test is described as follows: MIC, broth-microdilution (CLSI VET01-A4), strain PM 10775. Conditions: Pasteurella multocida strain PM 10775, broth-microdilution; unit assumed. On the procedure: as §1, §2, §3
Test [7] deals with Mannheimia haemolytica MH 6357 (M7/2, reference strain, cattle infection strain). The test is described as follows: MIC, broth-microdilution (CLSI VET01-A4), strain MH 6357. Conditions: Mannheimia haemolytica strain MH 6357, broth-microdilution; unit assumed. On the procedure:
as §1, §2, §3

Test [8] deals with Pasteurella multocida PM 12080 (IV102277-0093, BRD field isolate). The test is described as follows: MIC, broth-microdilution (CLSI VET01-A4), strain PM 12080. Conditions: Pasteurella multocida strain PM 12080, broth-microdilution; unit assumed. On the procedure:
as §1, §2, §3

Test [9] deals with Mannheimia haemolytica MH 10720 (154, BRD field isolate). The test is described as follows: MIC, broth-microdilution (CLSI VET01-A4), strain MH 10720. Conditions: Mannheimia haemolytica strain MH 10720, broth-microdilution; unit assumed. On the procedure: as §1, §2, §3

In the case of `CC(C)[C@H](NC(=O)c1ccc(C#Cc2ccc(CNCC(C)(C)C)cc2)cc1)C(=O)NO` [Compound 95], the MIC PM 6267 in test [1] is at most 0.1 µg/mL. Also, in test [2], the MIC MH 13093 worked out at 3.1 µg/mL (≈ 7.12 µM). Further, in test [3], the MIC MH 12587 amounted to 6.3 µg/mL (≈ 14.5 µM). Besides, the MIC MH 6374 in test [4] is 3.1 µg/mL (≈ 7.12 µM). For the same compound, the MIC MH 13065 in test [5] worked out at 3.1 µg/mL (≈ 7.12 µM). Further, the MIC PM 10775 in [6] is at most 0.1 µg/mL. Moreover, the MIC MH 6357 in test [7] is 1.6 µg/mL (≈ 3.67 µM). This compound gave an MIC PM 12080 in test [8] of 0.4 µg/mL (≈ 0.918 µM). Besides, the MIC MH 10720 in test [9] stood at 0.8 µg/mL (≈ 1.84 µM).

In [1], `COCCNCc1ccc(C#Cc2ccc(C(=O)N[C@H](C(=O)NO)C(C)C)cc2)cc1` [Compound 96] registered an MIC PM 6267 of 0.2 µg/mL (≈ 0.472 µM). Also, in [2], the MIC MH 13093 is 3.1 µg/mL (≈ 7.32 µM). The MIC MH 12587 in test [3] is 12.5 µg/mL (≈ 29.5 µM). The compound also displayed an MIC MH 6374 in [4] of 0.8 µg/mL (≈ 1.89 µM). In addition, the MIC MH 13065 in test [5] was 1.6 µg/mL (≈ 3.78 µM). Moreover, the MIC PM 10775 in test [6] is at most 0.1 µg/mL. The same compound had an MIC MH 6357 in [7] of 3.1 µg/mL (≈ 7.32 µM). In addition, in test [8], the MIC PM 12080 came to 0.8 µg/mL (≈ 1.89 µM). The compound also yielded an MIC MH 10720 in [9] of 0.8 µg/mL (≈ 1.89 µM).

`CCN(CC)Cc1ccc(C#Cc2ccc(C(=O)N[C@H](C(=O)NO)C(C)C)cc2)cc1` [Compound 97] gave an MIC PM 6267 in test [1] of 0.2 µg/mL (≈ 0.474 µM). Moreover, the MIC MH 13093 in test [2] amounted to 12.5 µg/mL (≈ 29.7 µM). Moreover, the MIC MH 12587 in [3] turned out to be 12.5 µg/mL (≈ 29.7 µM). Moreover, in [4], the MIC MH 6374 was determined as 12.5 µg/mL (≈ 29.7 µM). Moreover, the MIC MH 13065 in test [5] was 12.5 µg/mL (≈ 29.7 µM). Further, in test [6], the MIC PM 10775 is at most 0.1 µg/mL. The same compound displayed an MIC MH 6357 in [7] of 12.5 µg/mL (≈ 29.7 µM). Also, the MIC PM 12080 in test [8] worked out at 0.8 µg/mL (≈ 1.9 µM). This compound came in with an MIC MH 10720 in test [9] of 3.1 µg/mL (≈ 7.35 µM).

`CC(C)[C@H](NC(=O)c1ccc(C#Cc2ccc(CN3CCOCC3)cc2)cc1)C(=O)NO` [Compound 98] yielded an MIC PM 6267 in [1] of at most 0.1 µg/mL. In [2], this compound had an MIC MH 13093 of 1.6 µg/mL (≈ 3.67 µM). The compound further returned an MIC MH 12587 in test [3] of 1.6 µg/mL (≈ 3.67 µM). In test [4], this compound showed an MIC MH 6374 of 1.6 µg/mL (≈ 3.67 µM). This compound registered an MIC MH 13065 in [5] of 1.6 µg/mL (≈ 3.67 µM). This compound also gave an MIC PM 10775 in test [6] of at most 0.1 µg/mL. The MIC MH 6357 in test [7] came out at 0.8 µg/mL (≈ 1.84 µM). For the same compound, in [8], the MIC PM 12080 is at most 0.1 µg/mL. Further, the MIC MH 10720 in test [9] stood at 0.4 µg/mL (≈ 0.918 µM).

The compound `CC(C)[C@H](NC(=O)c1ccc(C#Cc2ccc(CN3CCS(=O)(=O)CC3)cc2)cc1)C(=O)NO` [Compound 99] yielded an MIC PM 6267 in [1] of at most 0.1 µg/mL. In test [2], this compound had an MIC MH 13093 of 6.3 µg/mL (≈ 13 µM). Besides, the MIC MH 12587 in test [3] amounted to 12.5 µg/mL (≈ 25.8 µM). In test [4], this compound displayed an MIC MH 6374 of 6.3 µg/mL (≈ 13 µM). The MIC MH 13065 in test [5] is 6.3 µg/mL (≈ 13 µM). The MIC PM 10775 in test [6] was at most 0.1 µg/mL. This compound also showed an MIC MH 6357 in test [7] of 3.1 µg/mL (≈ 6.41 µM). This compound came in with an MIC PM 12080 in [8] of 0.2 µg/mL (≈ 0.414 µM). Besides, in test [9], the MIC MH 10720 came out at 0.8 µg/mL (≈ 1.65 µM).

On to `CC(C)[C@H](NC(=O)c1ccc(C#Cc2ccc(CN3CCC(c4ccccc4)CC3)cc2)cc1)C(=O)NO` [Compound 100], for which, in test [1], the MIC PM 6267 amounted to 0.4 µg/mL (≈ 0.785 µM). In addition, in [2], the MIC MH 13093 turned out to be 6.3 µg/mL (≈ 12.4 µM). The same compound returned an MIC MH 12587 in test [3] of 12.5 µg/mL (≈ 24.5 µM). In test [4], the MIC MH 6374 is 6.3 µg/mL (≈ 12.4 µM). In [5], this compound had an MIC MH 13065 of 3.1 µg/mL (≈ 6.08 µM). Further, the MIC PM 10775 in test [6] was at most 0.1 µg/mL. In [7], this compound yielded an MIC MH 6357 of 3.1 µg/mL (≈ 6.08 µM). For the same compound, the MIC PM 12080 in test [8] is 0.8 µg/mL (≈ 1.57 µM). The same compound came in with an MIC MH 10720 in test [9] of 0.8 µg/mL (≈ 1.57 µM).

In test [1], `CC(C)[C@H](NC(=O)c1ccc(C#Cc2ccc(CN3CCN(c4ccccn4)CC3)cc2)cc1)C(=O)NO` [Compound 101] gave an MIC PM 6267 of 0.4 µg/mL (≈ 0.782 µM). The compound further registered an MIC MH 13093 in test [2] of 3.1 µg/mL (≈ 6.06 µM). This compound also registered an MIC MH 12587 in [3] of 12.5 µg/mL (≈ 24.4 µM). The same compound registered an MIC MH 6374 in test [4] of 3.1 µg/mL (≈ 6.06 µM). In test [5], this compound registered an MIC MH 13065 of 3.1 µg/mL (≈ 6.06 µM). This compound also showed an MIC PM 10775 in [6] of at most 0.1 µg/mL. The MIC MH 6357 in test [7] amounted to 3.1 µg/mL (≈ 6.06 µM). Moreover, the MIC PM 12080 in test [8] came out at 0.8 µg/mL (≈ 1.56 µM). In [9], this compound came in with an MIC MH 10720 of 0.8 µg/mL (≈ 1.56 µM).

`CC(C)[C@H](NC(=O)c1ccc(C#Cc2ccc(CN3CCc4ccccc4C3)cc2)cc1)C(=O)NO` [Compound 102] registered an MIC PM 6267 in [1] of 0.4 µg/mL (≈ 0.831 µM). In test [2], this compound returned an MIC MH 13093 of 6.3 µg/mL (≈ 13.1 µM). Besides, in test [3], the MIC MH 12587 was found to be 12.5 µg/mL (≈ 26 µM). Further, in [4], the MIC MH 6374 was 3.1 µg/mL (≈ 6.44 µM). This compound returned an MIC MH 13065 in test [5] of 3.1 µg/mL (≈ 6.44 µM). In test [6], this compound returned an MIC PM 10775 of at most 0.1 µg/mL. The compound further showed an MIC MH 6357 in [7] of 3.1 µg/mL (≈ 6.44 µM). Besides, in test [8], the MIC PM 12080 amounted to 0.8 µg/mL (≈ 1.66 µM). In addition, the MIC MH 10720 in test [9] was determined as 0.8 µg/mL (≈ 1.66 µM).
